Measured values: PubChem BioAssay (NCI)
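Compound exposure: 48 hours, 5 concentrations, 96-well plates. TGI is the concentration that stops growth completely.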

Key:
Test in all cases: inhibition of tumour cell growth, NCI panel, 48 h
[1] = tested on: TK-10 renal
[2] = tested on: SF-268 CNS
[3] = tested on: SK-MEL-28 melanoma
[4] = tested on: RXF 393 renal
[5] = tested on: 786-0 renal
[6] = tested on: OVCAR-3 ovarian
[7] = tested on: U251 CNS
[8] = tested on: UACC-62 melanoma
[9] = tested on: SNB-19 CNS
[10] = tested on: KM12 colon
[11] = tested on: M14 melanoma
[12] = tested on: HCT-116 colon
[13] = tested on: OVCAR-8 ovarian
[14] = tested on: SK-OV-3 ovarian
[15] = tested on: NCI-H226 lung
[16] = tested on: HS 578T breast
[17] = tested on: NCI/ADR-RES ovarian
[18] = tested on: COLO 205 colon
[19] = tested on: HCT-15 colon
[20] = tested on: NCI-H460 lung
[21] = tested on: RPMI-8226 leukemia
[22] = tested on: OVCAR-5 ovarian
[23] = tested on: ACHN renal
[24] = tested on: HOP-62 NSCLC
[25] = tested on: LOX IMVI melanoma
[26] = tested on: MOLT-4 leukemia
[27] = tested on: DU-145 prostate
[28] = tested on: MDA-MB-435
[29] = tested on: A498 renal
[30] = tested on: UACC-257 melanoma
[31] = tested on: MDA-N
[32] = tested on: HCC-2998 colon
[33] = tested on: CAKI-1 renal
[34] = tested on: K-562 leukemia
[35] = tested on: SK-MEL-2 melanoma
[36] = tested on: T-47D breast
[37] = tested on: SF-295 CNS
[38] = tested on: MCF7 breast
[39] = tested on: SW-620 colon
[40] = tested on: BT-549 breast
[41] = tested on: SN12C renal
[42] = tested on: MDA-MB-231 breast
[43] = tested on: NCI-H23 lung
[44] = tested on: A549 NSCLC
[45] = tested on: SNB-75 CNS
[46] = tested on: OVCAR-4 ovarian
[47] = tested on: UO-31 renal
[48] = tested on: PC-3 prostate
[49] = tested on: HL-60(TB) leukemia
[50] = tested on: IGROV1 ovarian
[51] = tested on: NCI-H522 lung
[52] = tested on: HOP-92 NSCLC
[53] = tested on: SF-539 CNS
[54] = tested on: HT29 colon
[55] = tested on: MALME-3M melanoma
[56] = tested on: SK-MEL-5 melanoma
[57] = tested on: EKVX NSCLC
[58] = tested on: CCRF-CEM leukemia

`CO[C@]12C#CC=CC#C[C@@H](O)[C@]3(CCC1)O[C@@]23c1cccc(O)c1` showed a TGI [1] of over 100 µM, a TGI [2] of over 100 µM and a TGI [3] of over 100 µM. For the same compound, the TGI [4] was over 100 µM, the TGI [5] was over 100 µM and the TGI [6] was over 100 µM. The TGI [7] was over 100 µM, the TGI [8] was over 100 µM and the TGI [9] was over 100 µM. The TGI [10] was over 100 µM, the TGI [11] was over 100 µM and the TGI [12] was over 100 µM. It also gave a TGI [13] of over 100 µM, a TGI [14] of over 100 µM and a TGI [15] of over 100 µM. For the same compound, the TGI [16] was over 100 µM, the TGI [17] was over 100 µM and the TGI [18] was over 100 µM. The TGI [19] was over 100 µM, the TGI [20] was over 100 µM and the TGI [21] was over 100 µM. The TGI [22] was over 100 µM, the TGI [23] was over 100 µM and the TGI [24] was over 100 µM. The TGI [25] was over 100 µM, the TGI [26] was over 100 µM and the TGI [27] was over 100 µM. For the same compound, the TGI [28] was over 100 µM, the TGI [29] was over 100 µM and the TGI [30] was over 100 µM. The TGI [31] was over 100 µM, the TGI [32] was over 100 µM and the TGI [33] was over 100 µM. The TGI [34] was over 100 µM, the TGI [35] was over 100 µM and the TGI [36] was over 100 µM. The TGI [37] was over 100 µM, the TGI [38] was over 100 µM and the TGI [39] was over 100 µM. The TGI [40] was over 100 µM, the TGI [41] was over 100 µM and the TGI [42] was over 100 µM. It also gave a TGI [43] of over 100 µM, a TGI [44] of over 100 µM and a TGI [45] of over 100 µM. It also gave a TGI [46] of over 100 µM, a TGI [47] of over 100 µM and a TGI [48] of over 100 µM.
With `O=S(=O)(/N=C(\NO)Nc1ccc(Cl)cc1)c1cc2ccccc2o1` the TGI [49] was 37.5 µM, the TGI [1] was over 100 µM and the TGI [2] was 55.7 µM. For the same compound, the TGI [3] was 35 µM, the TGI [4] was 95 µM and the TGI [5] was 39.3 µM. It also gave a TGI [6] of 28.5 µM, a TGI [7] of 33.4 µM and a TGI [8] of 29.3 µM. For the same compound, the TGI [9] was over 100 µM, the TGI [10] was 33.5 µM and the TGI [11] was 49.6 µM. For the same compound, the TGI [12] was 24.8 µM, the TGI [50] was 30.7 µM and the TGI [13] was 39.8 µM. It also gave a TGI [14] of 62.3 µM, a TGI [15] of 71.7 µM and a TGI [16] of 52.8 µM. The TGI [17] was 55.1 µM, the TGI [18] was 51.1 µM and the TGI [19] was 34.2 µM. For the same compound, the TGI [20] was over 100 µM, the TGI [22] was 57.2 µM and the TGI [23] was 46.1 µM. The TGI [24] was 83 µM, the TGI [25] was 23.9 µM and the TGI [26] was over 100 µM. The TGI [27] was over 100 µM, the TGI [51] was 25.7 µM and the TGI [28] was 29.7 µM. The TGI [52] was 29 µM, the TGI [30] was 51.7 µM and the TGI [53] was over 100 µM. The TGI [31] was 59.6 µM, the TGI [33] was 36.7 µM and the TGI [54] was 47.2 µM. It also gave a TGI [55] of 45.2 µM, a TGI [34] of over 100 µM and a TGI [35] of 35.9 µM. It also gave a TGI [36] of over 100 µM, a TGI [37] of 47 µM and a TGI [39] of 65.1 µM. It also gave a TGI [40] of 34.8 µM, a TGI [41] of 36.1 µM and a TGI [42] of 40.9 µM. For the same compound, the TGI [56] was 30.9 µM, the TGI [43] was 48 µM and the TGI [44] was over 100 µM. For the same compound, the TGI [57] was 41.9 µM, the TGI [58] was 57.4 µM and the TGI [45] was over 100 µM. The TGI [46] was 56 µM, the TGI [47] was 91.2 µM and the TGI [48] was 69 µM.
